The target of one series is T1, Tet(56-2) (Legionella clemsonensis, UniProt A0A222NYA8).
T1 construct: gene clem_00015
Put plainly: biochemical.

The target in the next series is T2, Tet(56-3) (Legionella massiliensis, UniProt A0A078L5T0).
T2 construct: gene BN59_03621
Put plainly: biochemical.

A further series relates to Tet(X7). It is filed as biochemical, uncultured bacterium. Conditions: […] NADPH, […] MgCl2, 100 mM TAPS pH 8.5, 0.4 µM enzyme; read-out: KM (apparent).
The next series has as its system E. coli + pZE24 Tet50_WT. Put plainly: microbe, parasite or virus in culture. The settings on record: Escherichia coli, 20 h. The procedure:
(§1) For high expression from the Plac/ara-1 promoter, 1 mM IPTG fully relieves repression by LacI[93]. Inoculated panels were incubated at 37 °C for 20 h with shaking, then scored by eye and using a plate reader.

Another series concerns E. coli + pZE24 TetX7_WT. Put plainly: microbe, parasite or virus in culture. Conditions: Escherichia coli, 20 h. The protocol:
as §1

For the next series, the system named is Tet(56-4). The settings on record: read-out: KM (apparent); […] NADPH, […] MgCl2, 100 mM TAPS pH 8.5, 0.4 µM enzyme.
A further series concerns Tet(56-5). Conditions: read-out: KM (apparent).
A further series deals with Tet(56-7). The settings on record: read-out: KM (apparent).
Another series relates to Tet(56-6). The settings on record: read-out: KM (apparent); […] NADPH, […] MgCl2, 100 mM TAPS pH 8.5, 0.4 µM enzyme.
A further series has as its system Tet(X13.2). Conditions: read-out: KM (apparent); […] NADPH, […] MgCl2, 100 mM TAPS pH 8.5, 0.4 µM enzyme.
In another series the test system is Tet(58). The settings on record: read-out: KM (apparent); […] NADPH, […] MgCl2, 100 mM TAPS pH 8.5, 0.4 µM enzyme.
Series [1] has as its system C[C@H]1c2cccc(O)c2C(=O)C2=C(O)[C@]3(O)C(=O)C(C(N)=O)=C(O)[C@@H](N(C)C)[C@@H]3[C@@H](O)[C@@H]21. Put plainly: purified protein. Conditions: pH 8.5.

In brackets after ≈: the same amount, converted by molar mass.

T2 sequence (A0A078L5T0 1-387 limits assumed): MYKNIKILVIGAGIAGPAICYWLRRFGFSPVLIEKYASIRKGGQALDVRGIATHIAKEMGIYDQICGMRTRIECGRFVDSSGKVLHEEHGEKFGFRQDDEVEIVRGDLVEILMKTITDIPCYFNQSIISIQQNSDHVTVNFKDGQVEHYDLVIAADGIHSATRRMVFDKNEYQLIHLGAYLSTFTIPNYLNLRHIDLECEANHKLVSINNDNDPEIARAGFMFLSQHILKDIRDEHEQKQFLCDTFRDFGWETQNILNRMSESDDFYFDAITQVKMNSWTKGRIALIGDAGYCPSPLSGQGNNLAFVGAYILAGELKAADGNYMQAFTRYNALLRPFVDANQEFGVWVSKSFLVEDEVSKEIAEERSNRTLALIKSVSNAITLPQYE
T1 sequence (A0A222NYA8 1-387 limits assumed): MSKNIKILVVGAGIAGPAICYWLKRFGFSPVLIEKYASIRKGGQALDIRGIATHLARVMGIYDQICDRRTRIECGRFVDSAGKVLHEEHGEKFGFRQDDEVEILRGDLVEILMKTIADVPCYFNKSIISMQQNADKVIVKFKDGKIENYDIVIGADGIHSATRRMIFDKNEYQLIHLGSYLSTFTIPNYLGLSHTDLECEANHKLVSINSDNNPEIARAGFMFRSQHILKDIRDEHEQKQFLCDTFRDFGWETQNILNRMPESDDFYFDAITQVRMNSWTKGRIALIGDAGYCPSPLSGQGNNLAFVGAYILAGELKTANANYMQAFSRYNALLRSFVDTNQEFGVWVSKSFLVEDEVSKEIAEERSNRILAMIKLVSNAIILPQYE

As to `Cc1c2c(c(O)c3c(O)cccc13)C(=O)[C@]1(O)C(=O)C(C(N)=O)=C(O)[C@@H](N(C)C)[C@@H]1C2` [ATC, anhydrotetracycline], the IC50 was found to be 6.4 ± 0.9 µM on Tet(56-2) and 30 ± 6 µM against Tet(56-3).
With `C[C@H]1c2cccc(O)c2C(=O)C2=C(O)[C@]3(O)C(=O)C(C(N)=O)=C(O)[C@@H](N(C)C)[C@@H]3[C@@H](O)[C@@H]21` [DOX, doxycycline], in the series with Tet(X7), the Km was found to be 5.62 ± 0.629 µM. Moreover, the MIC in the series on E. coli + pZE24 Tet50_WT is 2 µg/mL (≈ 4.5 µM); in the series with E. coli + pZE24 TetX7_WT it was 16 µg/mL (≈ 36 µM).
As for `CN(C)[C@@H]1C(=O)C(C(N)=O)=C(O)[C@@]2(O)C(=O)C3=C(O)c4c(O)cccc4[C@@](C)(O)[C@H]3C[C@@H]12` [TET, tetracycline], the Km in the series with Tet(X7) came to 2.97 ± 0.68 µM; in the series on Tet(56-4), 1.18 ± 0.562 µM; with Tet(56-5), 0.508 ± 0.181 µM; in the series with Tet(56-7), 2.6 ± 0.301 µM; in the series with Tet(56-6) it was 0.441 ± 0.218 µM; with Tet(X13.2) it was 23.4 ± 9.62 µM. The Km in the series on Tet(58) worked out at 0.123 ± 0.067 µM. For the same compound, the MIC with E. coli + pZE24 Tet50_WT and in the series with E. coli + pZE24 TetX7_WT was 32 µg/mL (≈ 72 µM) each time.
Turning to `CN(C)c1cc(NC(=O)CNC(C)(C)C)c(O)c2c1C[C@H]1C[C@H]3[C@H](N(C)C)C(O)=C(C(N)=O)C(=O)[C@@]3(O)C(O)=C1C2=O` [tigecycline], the MIC in the series with E. coli + pZE24 Tet50_WT came out at 0.5 µg/mL (≈ 0.854 µM); with E. coli + pZE24 TetX7_WT it was 2 µg/mL (≈ 3.41 µM).
In the case of Tet(56-2) (Legionella clemsonensis), the Km in series [1] was 150 ± 42 µM.
On the same count and under the same terms, the figure for Tet(56-3) (Legionella massiliensis) is 14.9 ± 1.4 µM.

The term IC50 denotes the concentration that gives 50% inhibition. A higher IC50 goes with lower potency. For orientation: Km means the concentration of substrate that gives half-maximal velocity.
